Values of other authors in patent US8685965B2, “CGRP receptor antagonists” (Merck Sharp & Dohme Corp., priority 2008, dated 2014).
Ends that are not written are not given here.

Legend:
[1] = test system: facial blood flow; details: rat; Escott et al. 1995
[2] = test system: middle meningeal artery; details: rats, prior administration; Williamson et al. 1997
[3] = test system: facial blood flow; details: marmoset; Doods et al. 2000
[4] = test system: headache induced by CGRP infusion; details: control group; Petersen et al. 2005
[5] = test system: acute attacks of migraine; details: clinical trials; Olesen et al. 2004

Row | Molecule | effect on increase of facial blood flow after trigeminal ganglion stimulation [1] | effect on increase of middle meningeal artery diameter after electrical stimulation of the dura mater [2] | effect on increase of facial blood flow after electrical stimulation of the trigeminal ganglion [3] | prevention of headache induced by CGRP infusion [4] | efficacy in treating acute attacks of migraine [5]
1 | CGRP(8-37): a peptide CGRP antagonist; fragment of CGRP that lacks seven N-terminal amino acid residues (VTHRLAGLLSRSGGVVKNNFVPTNVGSKAF; ends and bridges not checked; UniProt P06881 90-119, looked up, fragment) | inhibited | blocked | – | – | –
2 | NCCCC[C@H](NC(=O)[C@@H](Cc1cc(Br)c(O)c(Br)c1)NC(=O)N1CCC(N2Cc3ccccc3NC2=O)CC1)C(=O)N1CCN(c2ccncc2)CC1 [BIBN4096BS] | – | – | could be blocked | able to prevent headache induced by CGRP infusion | effective in treating acute attacks of migraine
